Values quoted from earlier work in patent US20100202983A1, “SELECTIVELY TARGETED ANTIMICROBIALS FOR THE TREATMENT OF PERIODONTAL DISEASE” (priority 2009, published 2010).

System: S. mutans
Details: not given

Row | Substance | efficacy for reducing the biofilms formed by S. mutans, and other microbial pathogenic microbes
1 | 1903 BD2-21: S. mutans-specific targeting peptide linked via linker peptide to an antimicrobial peptide (NIFEYFLEGGGKLFKFLRKHLL; selectively/specifically targeted antimicrobial peptide (STAMP) chimeric polypeptide 1903-BD2.21) | efficacy has been demonstrated
2 | C16 BD2.21: S. mutans-specific targeting peptide linked via linker peptide to an antimicrobial peptide (TFFRLFNRSFTQALGKGGGKLFKFLRKHLL; selectively/specifically targeted antimicrobial peptide (STAMP) chimeric polypeptide C16-BD2.21) | efficacy has been demonstrated
3 | C16G2: S. mutans-specific targeting peptide linked via linker peptide to an antimicrobial peptide (TFFRLFNRSFTQALGKGGGKNLRIIRKGIHIIKKY; selectively/specifically targeted antimicrobial peptide (STAMP) chimeric polypeptide C16G2) | efficacy has been demonstrated
4 | M8-33: S. mutans-specific targeting peptide linked via linker peptide to an antimicrobial peptide (TFFRLFNRSGGGFKKFWKWFRRF; selectively/specifically targeted antimicrobial peptide (STAMP) chimeric polypeptide M8-33) | efficacy has been demonstrated
5 | M8G2: S. mutans-specific targeting peptide linked via linker peptide to an antimicrobial peptide (TFFRLFNRGGGKNLRIIRKGIHIIKKY; selectively/specifically targeted antimicrobial peptide (STAMP) chimeric polypeptide M8G2) | efficacy has been demonstrated

System: S. mutans
Details: cell culture

Row | Substance | efficacy for reducing the colony forming units of S. mutans
6 | FBRW-15: antimicrobial peptide useful in the present invention (IKQLLHFFQRFGGGRWRWRWF; FBRW-15) | efficacy has been demonstrated
7 | FBRW-16: antimicrobial peptide useful in the present invention (LKRFLKWFKRFGGGRWRWRWF; FBRW-16) | efficacy has been demonstrated
8 | FBRW-22: antimicrobial peptide useful in the present invention (RWRWRWFGGGFKKFWKWFRRF; FBRW-22) | efficacy has been demonstrated
9 | FBRW-24: antimicrobial peptide useful in the present invention (RWRWRWFGGGLKRFLKWFKRF; FBRW-24) | efficacy has been demonstrated
10 | FBα-20: antimicrobial peptide useful in the present invention (RWRRLLKKLHHLLHGGGFKKFWKWFRRF; FBalpha-20) | efficacy has been demonstrated
11 | FBα-21: antimicrobial peptide useful in the present invention (RWRRLLKKLHHLLHGGGIKQLLHFFQRF; FBalpha-21) | efficacy has been demonstrated

System: Porphyromonas gingivalis and Streptococcus mitis
Details: Murakami et al., Infect. Immun. 59:3284 (1991)

Row | Substance | inhibition of coaggregation between Porphyromonas gingivalis and Streptococcus mitis
12 | Histatin 5: 24-residue peptide from human saliva with antifungal properties (DSHAKRHHGYKRKFHEKHHSHRGY; histatin 5 peptide) | inhibits coaggregation
